From patent publication US11976068B2 (CHIMERIX, INC., priority 2015, dated 2024)
Where two headings read alike, the source gives them in different places.

Legend:
human cancer cells = experiment: Viability of human cancer cells at 72 hours post-treatment; format: cell-based; details: change in potency relative to ONC201; viability at 72 hours post-treatment
Description: A number of exemplary analogs of compound (1) were prepared based on the syntheses described here. For each of these compounds, the viability of human cancer cells at 72 hours post-treatment with the compound was measured.

CYP 1A2 = experiment: CYP mRNA induction in cryopreserved human hepatocytes
CYP 2B6 = experiment: as above
human MDR1 = human MDR1 (Homo sapiens, UniProt P08183); details: digoxin probe; inhibitor 10 μM Valspodar (positive control)
Chain of human MDR1 (P08183 whole entry): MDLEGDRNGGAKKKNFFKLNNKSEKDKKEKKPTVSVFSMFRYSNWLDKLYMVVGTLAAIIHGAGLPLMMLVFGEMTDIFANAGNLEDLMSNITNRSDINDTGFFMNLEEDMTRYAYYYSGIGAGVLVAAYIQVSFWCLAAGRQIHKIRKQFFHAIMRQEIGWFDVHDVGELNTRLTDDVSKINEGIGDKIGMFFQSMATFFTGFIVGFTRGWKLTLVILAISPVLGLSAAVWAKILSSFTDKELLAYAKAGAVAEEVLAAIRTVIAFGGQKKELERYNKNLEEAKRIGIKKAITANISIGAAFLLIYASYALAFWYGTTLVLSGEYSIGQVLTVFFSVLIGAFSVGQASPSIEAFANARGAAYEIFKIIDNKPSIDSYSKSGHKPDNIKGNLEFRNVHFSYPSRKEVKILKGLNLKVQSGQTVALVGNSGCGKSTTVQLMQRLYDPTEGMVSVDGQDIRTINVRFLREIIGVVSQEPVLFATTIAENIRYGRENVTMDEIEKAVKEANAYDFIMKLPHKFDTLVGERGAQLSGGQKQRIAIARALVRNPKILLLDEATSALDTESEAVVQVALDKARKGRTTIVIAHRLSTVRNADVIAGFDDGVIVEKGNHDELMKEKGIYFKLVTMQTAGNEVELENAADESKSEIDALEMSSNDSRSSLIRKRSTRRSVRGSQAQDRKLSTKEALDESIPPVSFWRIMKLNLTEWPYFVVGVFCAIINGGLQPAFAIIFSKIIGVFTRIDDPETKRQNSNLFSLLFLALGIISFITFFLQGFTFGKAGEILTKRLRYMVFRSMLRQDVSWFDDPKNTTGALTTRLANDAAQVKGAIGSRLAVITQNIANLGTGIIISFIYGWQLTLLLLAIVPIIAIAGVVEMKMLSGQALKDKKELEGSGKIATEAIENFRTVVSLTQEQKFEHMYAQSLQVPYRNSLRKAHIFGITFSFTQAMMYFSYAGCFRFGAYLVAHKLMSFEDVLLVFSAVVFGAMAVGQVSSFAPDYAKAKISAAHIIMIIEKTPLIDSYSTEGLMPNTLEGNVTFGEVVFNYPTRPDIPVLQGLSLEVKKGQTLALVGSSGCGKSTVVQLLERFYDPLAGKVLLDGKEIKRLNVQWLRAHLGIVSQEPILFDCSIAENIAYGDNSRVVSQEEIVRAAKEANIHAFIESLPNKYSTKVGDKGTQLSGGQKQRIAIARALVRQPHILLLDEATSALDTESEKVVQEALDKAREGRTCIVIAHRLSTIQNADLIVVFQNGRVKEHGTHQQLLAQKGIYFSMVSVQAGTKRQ

CYP 3A4 = experiment: CYP mRNA induction in cryopreserved human hepatocytes
human BCRP = target: T1, human BCRP (Homo sapiens, UniProt Q9UNQ0); experiment: BCRP inhibition, bidirectional permeability of prazosin in MDCKII-BCRP monolayers; details: prazosin probe; inhibitor 1 μM Ko134 (positive control)
T1 sequence (Q9UNQ0 1-655): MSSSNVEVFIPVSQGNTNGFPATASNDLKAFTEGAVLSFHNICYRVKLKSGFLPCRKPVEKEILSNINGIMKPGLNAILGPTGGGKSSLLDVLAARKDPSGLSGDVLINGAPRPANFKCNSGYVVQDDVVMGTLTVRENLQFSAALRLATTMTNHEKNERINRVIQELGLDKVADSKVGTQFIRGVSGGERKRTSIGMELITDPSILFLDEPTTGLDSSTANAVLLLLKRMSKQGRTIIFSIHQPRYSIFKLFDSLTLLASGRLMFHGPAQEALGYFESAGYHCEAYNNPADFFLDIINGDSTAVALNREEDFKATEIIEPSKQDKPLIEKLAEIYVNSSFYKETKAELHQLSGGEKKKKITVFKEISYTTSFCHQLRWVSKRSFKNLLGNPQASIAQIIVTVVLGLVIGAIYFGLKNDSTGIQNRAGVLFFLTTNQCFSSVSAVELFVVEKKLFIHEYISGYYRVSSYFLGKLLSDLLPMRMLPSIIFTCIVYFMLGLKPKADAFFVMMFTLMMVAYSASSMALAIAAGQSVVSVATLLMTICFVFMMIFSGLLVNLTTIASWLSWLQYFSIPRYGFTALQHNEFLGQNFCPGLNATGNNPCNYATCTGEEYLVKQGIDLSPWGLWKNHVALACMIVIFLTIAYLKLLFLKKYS

[1] = tested on: human colon cancer xenograft; experiment: Human colon cancer xenograft-bearing mice; format: in vivo; details: single dose, oral or intraperitoneal, compared to vehicle-treated control cohorts
[2] = donor CDP, NC: flumazenil (25 μM)
[3] = donor two, NC: flumazenil (25 μM)

For `O=C1C2=C(CCN(Cc3ccccc3)C2)N2CCN=C2N1Cc1cc(F)cc(F)c1` [ONC210], the “Relative Potency” value (human cancer cells) was “A (A Indicates a potency increase of >2-fold of ONC201)”.

With `COc1ccc2[nH]c([S+]([O-])Cc3ncc(C)c(OC)c3C)nc2c1` (stereo not drawn) [omeprazole] the “mRNA Induction Fold” value (CYP 1A2; donor CDP, PC: omeprazole (50 μM)) was 28.71 fold, the “mRNA Induction Fold” value (CYP 1A2; donor one, PC: omeprazole (50 μM)) was 35.53 fold and the “mRNA Induction Fold” value (CYP 1A2; donor two, PC: omeprazole (50 μM)) was 31.06 fold.

For `CCC1(c2ccccc2)C(=O)NC(=O)NC1=O` [phenobarbital], the “mRNA Induction Fold” value (CYP 2B6; donor CDP, PC: phenobarbital (750 μM)) was 8.56 fold, the “mRNA Induction Fold” value (CYP 2B6; donor one, PC: phenobarbital (750 μM)) was 14.38 fold and the “mRNA Induction Fold” value (CYP 2B6; donor two, PC: phenobarbital (750 μM)) was 8.98 fold.

In the case of `O=C1C2=C(CCN(Cc3ccccc3)C2)N2CCN=C2N1Cc1ccccc1F` [ONC217], the “Relative Potency” value (human cancer cells) is reported as “B (B Indicates potency that is within 2-fold of ONC201)”.

For `C/C=C/C[C@@H](C)C(=O)[C@H]1C(=O)N[C@@H](C(C)C)C(=O)N(C)CC(=O)N(C)[C@@H](CC(C)C)C(=O)N[C@@H](C(C)C)C(=O)N(C)[C@@H](CC(C)C)C(=O)N[C@@H](C)C(=O)N[C@H](C)C(=O)N(C)[C@@H](CC(C)C)C(=O)N(C)[C@@H](CC(C)C)C(=O)N(C)[C@@H](C(C)C)C(=O)N1C` [Valspodar, reference compound], the “% Inhibition (Efflux Ratio)” value (human MDR1) was 96.8%.

`CCOC(=O)c1ncn2c1CN(C)C(=O)c1cc(F)ccc1-2` [flumazenil] was tested, and the “mRNA Induction Fold” value (CYP 1A2; [2]) was 1.16 fold, the “mRNA Induction Fold” value (CYP 1A2; donor one, NC: flumazenil (25 μM)) was 1.31 fold and the “mRNA Induction Fold” value (CYP 1A2; [3]) was 1.34 fold. The “mRNA Induction Fold” value (CYP 2B6; [2]) was 1.16 fold, the “mRNA Induction Fold” value (CYP 2B6; [3]) was 1.27 fold and the “mRNA Induction Fold” value (CYP 3A4) was 1.37 fold. For the same molecule, the “mRNA Induction Fold” value (CYP 3A4; CYP 3A4, donor CDP, NC: flumazenil (25 μM)) was 1.03 fold and the “mRNA Induction Fold” value (CYP 3A4; CYP 3A4, donor two, NC: flumazenil (25 μM)) was 0.93 fold.

With `O=C1C2=C(CCN(Cc3ccccc3)C2)N2CCN=C2N1Cc1ccc(Cl)c(Cl)c1` [ONC211] the “Relative Potency” value (human cancer cells) was “A (A Indicates a potency increase of >2-fold of ONC201)”.

With `O=C1C2=C(CCN(Cc3ccccc3)C2)N2CCN=C2N1CC1CCON1` (stereo not drawn) [ONC222] the “Relative Potency” value (human cancer cells) was “B (B Indicates potency that is within 2-fold of ONC201)”.

`CC(C)C[C@H]1c2[nH]c3ccccc3c2C[C@H]2C(=O)N[C@@H](CCC(=O)OC(C)(C)C)C(=O)N21` [Ko134, reference compound] was tested, and the “% Inhibition (Efflux Ratio)” value (human BCRP) was 98.7%.

With `O=C1C2=C(CCN(Cc3ccccc3)C2)N2CCN=C2N1Cc1ccc(C(F)(F)F)cc1` [ONC212] the tumor volume [1] was “significant reduction of tumor volume”.
